Results reported in patent US9351915B2, “Ascorbic acid derivative composition and production method of the same, ascorbic acid derivative solution, and skin external preparation” (SHOWA DENKO K.K., priority 2012, dated 2016).

How the values were obtained:
[1] = Solubility test (time until solid is absent in aqueous medium); type: physicochemical; settings: 20° C., 500 rpm, visual observation every 5 minutes
Protocol: Each substance shown in Table 2 was prepared at the ratio (% by mass) indicated in Table 2 so that the total amount was 100 g. First, pure water or a mixture of pure water and methanol serving as a solvent was placed in a beaker having a capacity of 200 mL, and the beaker was immersed in a water bath which was controlled to 20° C. Then, stirring was performed at a rotational speed of 500 rpm with a stirrer chip having a diameter of 2.5 cm, and the ascorbic acid derivative was mixed at the point where the liquid temperature reached 20° C. This time point was set as the zero point and the time (min) until the solid became absent in the mixture was measured. As for the end point, visual observation was carried out every 5 minutes from the start of the stirring, and the time point at which the mixture became clear was determined as the end point.

[2] = Storage stability test (aqueous solution, residual ratio by HPLC); type: physicochemical; settings: 2% by mass ascorbic acid derivative in purified water, glass bottle with lid, 10 days at 40° C., light shielding; total of 2- and 3-phosphate salts
Source text: The sodium salt of L-ascorbic acid-2-phosphoric acid-6-palmitate obtained in Production Example 2 and the sodium salt of L-ascorbic acid-3-phosphoric acid-6-palmitate obtained in Production Example 4 were mixed at a ratio (% by mass) shown in Table 1 to prepare ascorbic acid derivative compositions of Examples 1 to 3.
The mixture obtained in Production Example 6 ((sodium salt of L-ascorbic acid-2-phosphoric acid-6-palmitate): (sodium salt of L-ascorbic acid-3-phosphoric acid-6-palmitate)=97.7:2.3 (mass ratio)) was used as it is as an ascorbic acid derivative composition of Example 4. […]
The concentration of ascorbic acid derivative in each of the solutions obtained before standing (immediately after preparation) and after standing for 10 days was measured, and the “residual ratio” was determined from the results by the following formula.
The concentration of ascorbic acid derivative contained in the solution was measured by the same measuring conditions as in the evaluation of the yield, with a high performance liquid chromatography apparatus using the Shodex SB 802.5 HQ column (manufactured by Showa Denko K.K.). […]

SMILES | Residual ratio (%) [2] [%] | also measured
CCCCCCCCCCCCCCCC(=O)OCC(O)C1OC(=O)C(OP(=O)([O-])[O-])=C1[O-].[Na+].[Na+].[Na+] [Comp. Ex. 4, Sodium salt of L-ascorbic acid-2-phosphoric acid-6-palmitate] |  | Time required for dissolution ([1]; 10% by mass ascorbic acid derivative in 70% by mass pure water + 20% by mass methanol): 65 min
CCCCCCCCCCCCCCCC(=O)OCC(O)C1OC(=O)C([O-])=C1OP(=O)([O-])[O-].[Na+].[Na+].[Na+] [Comp. Ex. 2, Sodium salt of L-ascorbic acid-3-phosphoric acid-6-palmitate] | 83.9 | 
CCCCCCCCCCCCCCCC(=O)OCC(O)C1OC(=O)C(OP(=O)([O-])[O-])=C1[O-].[Na+].[Na+].[Na+] [Comp. Ex. 1, Sodium salt of L-ascorbic acid-2-phosphoric acid-6-palmitate] | 88.6 | 
CCCCCCCCCCCCCCCC(=O)OCC(O)C1OC(=O)C(OP(=O)([O-])[O-])=C1[O-].[Na+].[Na+].[Na+] [Comp. Ex. 3, Sodium salt of L-ascorbic acid-2-phosphoric acid-6-palmitate] |  | Time required for dissolution ([1]; 10% by mass ascorbic acid derivative in 90% by mass pure water): 50 min
